The text below walks through data of BindingDB's records for patent US8623892 (Viamet Pharmaceuticals, 2014).

In this experiment the target is T1, Steroid 17-alpha-hydroxylase/17,20 lyase (Rattus norvegicus, UniProt P11715).
T1 sequence (P11715 whole entry): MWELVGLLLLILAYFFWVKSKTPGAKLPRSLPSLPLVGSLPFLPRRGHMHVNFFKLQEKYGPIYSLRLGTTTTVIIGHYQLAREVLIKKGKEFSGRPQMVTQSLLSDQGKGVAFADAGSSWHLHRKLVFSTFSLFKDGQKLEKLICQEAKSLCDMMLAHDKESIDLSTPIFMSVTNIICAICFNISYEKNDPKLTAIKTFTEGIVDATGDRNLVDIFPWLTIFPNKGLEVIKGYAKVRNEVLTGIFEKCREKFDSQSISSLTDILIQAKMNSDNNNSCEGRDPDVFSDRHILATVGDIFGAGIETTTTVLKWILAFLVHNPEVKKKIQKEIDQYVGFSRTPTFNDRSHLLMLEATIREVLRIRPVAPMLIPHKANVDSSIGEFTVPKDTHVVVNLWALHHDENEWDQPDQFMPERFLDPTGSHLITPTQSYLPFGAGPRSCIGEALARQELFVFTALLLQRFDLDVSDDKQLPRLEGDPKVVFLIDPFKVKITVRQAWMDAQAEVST
Description: Inhibition Assay. The text has this:
If a weakly binding metal-binding group is utilized, potency may be suboptimal. On the other hand, if a very tightly binding metal-binding group is utilized, selectivity for the target enzyme versus related metalloenzymes may be suboptimal. The lack of optimal selectivity can be a cause for clinical toxicity due to unintended inhibition of these off-target metalloenzymes. […] It is believed that this off-target inhibition is caused primarily by the indiscriminate binding of the currently utilized 1-imidazole to iron in the active site of CYP2C9, CYP2C19 and CYP3A4.

The compound `CC(C)C(O)(c1ccc2cc(OC(F)F)c(OC(F)F)cc2c1)c1c[nH]nn1` (stereo unspecified) [US8623892, 3] displayed a 50% inhibitory concentration (IC50) of 220 nM.

One may read the IC50 as the point on the concentration scale where inhibition reaches its midpoint.
